Test results reported in patent US7803930B2, “Antisense modulation of apolipoprotein B-expression” (Isis Pharmaceuticals, Inc., priority 2002, dated 2010).
In the oligonucleotide strings, read from the 5' end, every base follows the letter of its sugar. An asterisk marks phosphorothioate; unmarked linkages are phosphodiester. Other units and linkages are bracketed, terminal groups are in braces. A string of capitals states the bases alone. e = 2'-O-(2-methoxyethyl) (MOE); [5mC] = 5-methylcytosine; d = 2'-deoxy (DNA)

The substances below were run on human apolipoprotein B mRNA (assay: Inhibition of human apolipoprotein B mRNA levels in HepG2 cells, quantitative real-time PCR). Settings: HepG2 cells treated with 150 nM of compound; averages from two experiments; quantitative real-time PCR.
Type: cell-based
Experimental: The human hepatoblastoma cell line HepG2 was obtained from the American Type Culture Collection (Manassas, Va.). HepG2 cells were routinely cultured in Eagle's MEM supplemented with 10% fetal calf serum, non-essential amino acids, and 1 mM sodium pyruvate (Gibco/Life Technologies, Gaithersburg, Md.). Cells were routinely passaged by trypsinization and dilution when they reached 90% confluence. Cells were seeded into 96-well plates (Falcon-Primaria #3872) at a density of 7000 cells/well for use in RT-PCR analysis.
When cells reached 80% confluency, they were treated with oligonucleotide. For cells grown in 96-well plates, wells were washed once with 200 μL OPTI-MEM™-1 reduced-serum medium (Gibco BRL) and then treated with 130 μL of OPTI-MEM™-1 containing 3.75 μg/mL LIPOFECTIN™ (Gibco BRL) and the desired concentration of oligonucleotide. After 4-7 hours of treatment, the medium was replaced with fresh medium. Cells were harvested 16-24 hours after oligonucleotide treatment.
Quantitation of apolipoprotein B mRNA levels was determined by real-time quantitative PCR using the ABI PRISM™ 7700 Sequence Detection System (PE-Applied Biosystems, Foster City, Calif.) according to manufacturer's instructions. This is a closed-tube, non-gel-based, fluorescence detection system which allows high-throughput quantitation of polymerase chain reaction (PCR) products in real-time. As opposed to standard PCR, in which amplification products are quantitated after the PCR is completed, products in real-time quantitative PCR are quantitated as they accumulate. This is accomplished by including in the PCR reaction an oligonucleotide probe that anneals specifically between the forward and reverse PCR primers, and contains two fluorescent dyes. A reporter dye (e.g., JOE, FAM, or VIC, obtained from either Operon Technologies Inc., Alameda, Calif. or PE-Applied Biosystems, Foster City, Calif.) is attached to the 5′ end of the probe and a quencher dye (e.g., TAMRA, obtained from either Operon Technologies Inc., Alameda, Calif. or PE-Applied Biosystems, Foster City, Calif.) is attached to the 3′ end of the probe. When the probe and dyes are intact, reporter dye emission is quenched by the proximity of the 3′ quencher dye. During amplification, annealing of the probe to the target sequence creates a substrate that can be cleaved by the 5′-exonuclease activity of Taq polymerase. […] With each cycle, additional reporter dye molecules are cleaved from their respective probes, and the fluorescence intensity is monitored at regular intervals by laser optics built into the ABI PRISM™ 7700 Sequence Detection System. In each assay, a series of parallel reactions containing serial dilutions of mRNA from untreated control samples generates a standard curve that is used to quantitate the percent inhibition after antisense oligonucleotide treatment of test samples.
PCR reagents were obtained from PE-Applied Biosystems, Foster City, Calif. RT-PCR reactions were carried out by adding 25 μL PCR cocktail (1× TAQMAN™ buffer A, 5.5 mM MgCl2, 300 μM each of DATP, dCTP and dGTP, 600 μM of dUTP, 100 nM each of forward primer, reverse primer, and probe, 20 Units RNAse inhibitor, 1.25 Units AMPLITAQ GOLD™, and 12.5 Units MuLV reverse transcriptase) to 96 well plates containing 25 μL total RNA solution. The RT reaction was carried out by incubation for 30 minutes at 48° C. Following a 10 minute incubation at 95° C. to activate the AMPLITAQ GOLD™, 40 cycles of a two-step PCR protocol were carried out: 95° C. for 15 seconds (denaturation) followed by 60° C. for 1.5 minutes (annealing/extension).
Gene target quantities obtained by real time RT-PCR are normalized using either the expression level of GAPDH, a gene whose expression is constant, or by quantifying total RNA using RiboGreen™ (Molecular Probes, Inc. Eugene, Oreg.). GAPDH expression is quantified by real time RT-PCR, by being run simultaneously with the target, multiplexing, or separately. […]
For “270987 (antisense e[5mC]*e[5mC]*eT*e[5mC]*e[5mC]*dA*dG*d[5mC]*dT*d[5mC]*dA*dA*d[5mC]*d[5mC]*dT*eT*eG*e[5mC]*eA*eG) [compound 270987]”, the “% INHIB (inhibition of human apolipoprotein B mRNA levels)” value (shortened to “% INHIB”) was 0%. “270988 (antisense eG*eG*eG*eT*eT*dG*dA*dA*dG*d[5mC]*d[5mC]*dA*dT*dA*d[5mC]*eA*e[5mC]*e[5mC]*eT*e[5mC]) [compound 270988]” was tested, and the “% INHIB” value was 6%. For “270989 (antisense e[5mC]*e[5mC]*eA*eG*e[5mC]*dT*dT*dG*dA*dG*d[5mC]*dT*d[5mC]*dA*dT*eA*e[5mC]*e[5mC]*eT*eG) [compound 270989]”, the “% INHIB” value was 64%. With “270990 (antisense e[5mC]*e[5mC]*e[5mC]*eT*e[5mC]*dT*dT*dG*dA*dT*dG*dT*dT*d[5mC]*dA*eG*eG*eA*eT*eG) [compound 270990]” the “% INHIB” value was 42%. With “270991 (antisense eG*eA*eG*e[5mC]*eA*dG*dT*dT*dT*d[5mC]*d[5mC]*dA*dT*dA*d[5mC]*eA*e[5mC]*eG*eG*eT) [compound 270991]” the “% INHIB” value was 21%. For “270992 (antisense e[5mC]*e[5mC]*e[5mC]*eT*eT*d[5mC]*d[5mC]*dT*d[5mC]*dG*dT*d[5mC]*dT*dT*dG*eA*e[5mC]*eG*eG*eT) [compound 270992]”, the “% INHIB” value was 8%. For “270993 (antisense eT*eT*eG*eA*eA*dG*d[5mC]*dG*dA*dT*d[5mC]*dA*d[5mC]*dA*d[5mC]*eT*eG*e[5mC]*e[5mC]*e[5mC]) [compound 270993]”, the “% INHIB” value was 69%. With “270994 (antisense eG*e[5mC]*e[5mC]*eT*eT*dT*dG*dA*dT*dG*dA*dG*dA*dG*d[5mC]*eA*eA*eG*eT*eG) [compound 270994]” the “% INHIB” value was 51%. With “270995 (antisense eT*e[5mC]*e[5mC]*eT*e[5mC]*dT*dT*dA*dG*d[5mC]*dG*dT*d[5mC]*d[5mC]*dA*eG*eT*eG*eT*eG) [compound 270995]” the “% INHIB” value was 40%. “270996 (antisense e[5mC]*e[5mC]*eT*e[5mC]*eT*d[5mC]*dA*dG*d[5mC]*dT*d[5mC]*dA*dG*dT*dA*eA*e[5mC]*e[5mC]*eA*eG) [compound 270996]” was tested, and the “% INHIB” value was 0%. In the case of “270997 (antisense eG*e[5mC]*eA*e[5mC]*eT*dG*dA*dG*dG*d[5mC]*dT*dG*dT*d[5mC]*d[5mC]*eA*e[5mC]*eA*e[5mC]*eT) [compound 270997]”, the “% INHIB” value is reported as 24%. In the case of “270998 (antisense e[5mC]*eG*e[5mC]*eT*eG*dA*dT*d[5mC]*d[5mC]*d[5mC]*dT*d[5mC]*dG*d[5mC]*d[5mC]*eA*eT*eG*eT*eT) [compound 270998]”, the “% INHIB” value is reported as 1%. With “270999 (antisense eG*eT*eT*eG*eA*d[5mC]*d[5mC]*dG*d[5mC]*dG*dT*dG*dG*d[5mC]*dT*e[5mC]*eA*eG*e[5mC]*eG) [compound 270999]” the “% INHIB” value was 76%. “271000 (antisense eG*e[5mC]*eA*eG*e[5mC]*dT*d[5mC]*d[5mC]*dT*dG*dG*dG*dT*d[5mC]*d[5mC]*e[5mC]*eT*eG*eT*eA) [compound 271000]” was tested, and the “% INHIB” value was 22%. “271001 (antisense e[5mC]*e[5mC]*e[5mC]*eA*eT*dG*dG*dT*dA*dG*dA*dA*dT*dT*dT*eG*eG*eA*e[5mC]*eA) [compound 271001]” was tested, and the “% INHIB” value was 53%. In the case of “271002 (antisense eA*eA*eT*e[5mC]*eT*d[5mC]*dG*dA*dT*dG*dA*dG*dG*dT*d[5mC]*eA*eG*e[5mC]*eT*eG) [compound 271002]”, the “% INHIB” value is reported as 48%. For “271003 (antisense eG*eA*e[5mC]*eA*e[5mC]*d[5mC]*dA*dT*d[5mC]*dA*dG*dG*dA*dA*d[5mC]*eT*eT*eG*eA*e[5mC]) [compound 271003]”, the “% INHIB” value was 46%. For “271004 (antisense eG*e[5mC]*eT*e[5mC]*e[5mC]*dT*d[5mC]*dT*d[5mC]*d[5mC]*d[5mC]*dA*dA*dG*dA*eT*eG*e[5mC]*eG*eG) [compound 271004]”, the “% INHIB” value was 10%. In the case of “271005 (antisense eG*eG*e[5mC]*eA*e[5mC]*d[5mC]*d[5mC]*dA*dT*d[5mC]*dA*dG*dA*dA*dG*e[5mC]*eA*eG*e[5mC]*eT) [compound 271005]”, the “% INHIB” value is reported as 32%. With “271006 (antisense eA*eG*eT*e[5mC]*e[5mC]*dG*dG*dA*dA*dT*dG*dA*dT*dG*dA*eT*eG*e[5mC]*e[5mC]*e[5mC]) [compound 271006]” the “% INHIB” value was 42%. For “271007 (antisense e[5mC]*eT*eG*eA*eG*d[5mC]*dA*dG*d[5mC]*dT*dT*dG*dA*d[5mC]*dT*eG*eG*eT*e[5mC]*eT) [compound 271007]”, the “% INHIB” value was 26%. For “271008 (antisense e[5mC]*e[5mC]*e[5mC]*eG*eG*dT*d[5mC]*dA*dG*d[5mC]*dG*dG*dA*dT*dA*eG*eT*eA*eG*eG) [compound 271008]”, the “% INHIB” value was 37%. With “271010 (antisense eT*eG*eT*e[5mC]*eA*d[5mC]*dA*dA*d[5mC]*dT*dT*dA*dG*dG*dT*eG*eG*e[5mC]*e[5mC]*e[5mC]) [compound 271010]” the “% INHIB” value was 57%. “271011 (antisense eG*eT*e[5mC]*eT*eG*dG*d[5mC]*dA*dA*dT*d[5mC]*d[5mC]*d[5mC]*dA*dT*eG*eT*eT*e[5mC]*eT) [compound 271011]” was tested, and the “% INHIB” value was 51%. In the case of “271012 (antisense e[5mC]*e[5mC]*e[5mC]*eA*e[5mC]*dA*dG*dA*d[5mC]*dT*dT*dG*dA*dA*dG*eT*eG*eG*eA*eG) [compound 271012]”, the “% INHIB” value is reported as 55%. With “271013 (antisense eG*eA*eA*e[5mC]*eT*dG*d[5mC]*d[5mC]*d[5mC]*dA*dT*d[5mC]*dA*dA*dT*e[5mC]*eT*eT*eG*eA) [compound 271013]” the “% INHIB” value was 19%. In the case of “271014 (antisense e[5mC]*e[5mC]*e[5mC]*eA*eG*dA*dG*dA*dG*dG*d[5mC]*d[5mC]*dA*dA*dG*e[5mC]*eT*e[5mC]*eT*eG) [compound 271014]”, the “% INHIB” value is reported as 54%. “271015 (antisense eT*eG*eT*eG*eT*dT*d[5mC]*d[5mC]*d[5mC]*dT*dG*dA*dA*dG*d[5mC]*eG*eG*e[5mC]*e[5mC]*eA) [compound 271015]” was tested, and the “% INHIB” value was 43%. For “271016 (antisense eA*e[5mC]*e[5mC]*e[5mC]*eA*dG*dA*dA*dT*d[5mC]*dA*dT*dG*dG*d[5mC]*e[5mC]*eT*eG*eA*eT) [compound 271016]”, the “% INHIB” value was 19%. For “271017 (antisense eG*eG*eT*eG*e[5mC]*d[5mC]*dT*dG*dT*d[5mC]*dT*dG*d[5mC]*dT*d[5mC]*eA*eG*e[5mC]*eT*eG) [compound 271017]”, the “% INHIB” value was 30%. “271018 (antisense eA*eT*eG*eT*eG*dA*dA*dA*d[5mC]*dT*dT*dG*dT*d[5mC]*dT*e[5mC]*eT*e[5mC]*e[5mC]*e[5mC]) [compound 271018]” was tested, and the “% INHIB” value was 44%. “271019 (antisense eT*eA*eT*eG*eT*d[5mC]*dT*dG*d[5mC]*dA*dG*dT*dT*dG*dA*eG*eA*eT*eA*eG) [compound 271019]” was tested, and the “% INHIB” value was 15%. With “271020 (antisense eT*eT*eG*eA*eA*dT*d[5mC]*d[5mC]*dA*dG*dG*dA*dT*dG*d[5mC]*eA*eG*eT*eA*e[5mC]) [compound 271020]” the “% INHIB” value was 35%.
